Results reported in paper doi:10.1101/350942v2 (biorxiv, 2018).

Target: Tv2483 (Treponema vincentii, UniProt S3MDF0, R115A)
Experiment: biochemical

N=C(N)NCCC[C@H](N)C(=O)O [L-arginine]
Kd: 6.3 µM
